Measured values from patent publication US20240391889A1, “ANTIMICROBIAL COMPOUNDS AND THE METHODS OF USE” (priority 2021, published 2024).
In brackets after ≈: the same amount, converted by molar mass. Numbered stars: 1 amine (or outer) side, 2 acyl side, 3 side chain; on linkers, the order of the positions; unused ones are H or OH. Square brackets hold non-standard residues; d marks the D form. Peptide text beside a SMILES is read from it. * marks the point of attachment. N(1S-cyclohexylethyl)Gly = C[C@H](NCC(=O)O)C1CCCCC1; N(3-imidazol-1-ylpropyl)Gly = O=C(O)CNCCCn1ccnc1; Gly(Nα-4-Cl-benzyl) = O=C(O)CNCc1ccc(Cl)cc1; N(4-Br-benzyl)Gly = O=C(O)CNCc1ccc(Br)cc1; N(2-thienylmethyl)Gly = O=C(O)CNCc1cccs1; N(tridecyl)Gly = CCCCCCCCCCCCCNCC(=O)O; X2 = O=C(CN(c1cccc2ccccc12)[*:1])[*:2]; N(4-MeOBn)Gly = COc1ccc(CNCC(=O)O)cc1; X1 = CC(c1ccccc1)N(CC(=O)[*:2])[*:1]; Gly(N-2-aminoethyl) = NCCNCC(=O)O; Myristoyl = CCCCCCCCCCCCCC(=O)*; NFurfurylGly = O=C(O)CNCc1ccco1; Gly(N(CH2)3NH2) = NCCCNCC(=O)O; Gly(N-cHex) = O=C(O)CNC1CCCCC1; Nphe = O=C(O)CNCc1ccccc1; NPrGly = CCCNCC(=O)O; Nlys = NCCCCNCC(=O)O; Sar = CNCC(=O)O

Assays:
[1] = test system: C. albicans; format: cell-based, Candida albicans; conditions: 24 h
Description: (§1) This screening led to the discovery of RMG9-11 (FIG. 2C). The minimum inhibitory concentration (MIC) of resynthesized RMG9-11 was initially determined against C. albicans, C. neoformans, and the ESKAPE bacteria via CSLI guidelines (CLSI. Methods for Dilution Antimicrobial Susceptibility Tests for Bacteria That Grow Aerobically, 11th Edition. Clinical and Laboratory Standards Institute (2018); CLSI. Reference method for broth dilution antifungal susceptibility testing of yeasts; approved standard-third edition; CLSI document M27-A3. Clinical and Laboratory Standards Institute (2008)). […] C. albicans clinical isolates include a reference strain (M1), fluconazole susceptible strains (M4 and M6), and fluconazole resistant strains (M2, M3, M5, and M7). ATCC 64124 is multidrug resistant C. albicans strain that is resistant to amphotericin B, fluconazole, caspofungin, and flucytosine. All MICs were performed under CSLI guidelines in triplicate on at least three different days.
(§2) The minimum inhibitory concentration (MIC) of peptoids against fungal pathogens C. albicans and C. neoformans was determined following CLSI guidelines (Reference method for broth dilution antifungal susceptibility testing of yeasts; approved standard-third edition; CLSI document M27-A3.” CLSI. 2008.). Colonies were transferred from a streaked YPD plate to 0.85% saline to reach an OD530 between 0.18 and 0.25. This inoculant was diluted 1:100 into RPMI-MOPS and then further diluted 1:20 into RPMI-MOPS. 198 μL of inoculant was seeded into each well of a 96 well black-walled plate. 2-fold serial dilutions of 100× peptoid solutions were prepared in water and 2 μL of peptoid were added to each well in triplicate. […] MIC was defined as the lowest concentration of compound preventing fungal growth. This assay was repeated 3 times on separate days with each compound.

[2] = in vitro; format: cell-based; conditions: human, HepG2 hepatocellular carcinoma cells
Method: The mammalian cell lines that were tested (HepG2, 3T3, and HaCat) were incubated with RMG9-11 for 72 hours and cell viability was determined via mitochondrial activity using an MTT reduction assay where viable cells reduce MTT to formazan. Toxicity is reported as the concentration of the peptoid that results in a 50% reduction in viable cells, termed toxicity dose 50% or TD50. […] SR is defined as the TD50 divided by MIC and provides a measure of the therapeutic window for a compound. Typically for most lead compounds that would continue through development and optimization, a SR of 10 is preferred while an SR of 100 is more desirable for a compound moving into preclinical animal model evaluation.
Hepatocellular carcinoma (HepG2), mouse fibroblast (3T3), and human keratinocyte (HaCat) cells were cultured in Dulbeco modified eagle media (DMEM) containing 10% fetal bovine serum (FBS) and 1% penicillin, streptomycin, and glutamine (PSG) at 37° C. and 5% CO2. Cells were collected and adjusted to […] to 4×10^5 cells/mL in phenol-red free DMEM and plated (100 μL) 96 well plates. 2-fold serial dilutions of 10× peptoid (11.1 μL) were added to each well in triplicate. Water (vehicle) was used as a negative control. Plates were incubated at 37° C. in 5% CO2 for 72 hours. Thiazolyl blue tetrazolium bromide (MTT) was added to each well (5 mg/mL; 20 μL) and incubated for 3 hours. Media was removed, DMSO (100 μL) was added, and plates were incubated at 37° C. for 10 minutes. Plates were read on a SPECTRAMAX M5 plate reader (Abs. 570 nm). The concentration of compound resulting in a 50% reduction in growth compared to control (toxicity dose 50%; TD50) was determined using GRAFIT. This procedure was repeated three times on separate days.

[3] = test system: C. neoformans; format: cell-based, Cryptococcus neoformans; conditions: 72 h
Description: as §1, §2

Structure (SMILES) | MIC C. albicans [1] [µg/mL] | CC50 at 72 h [2] [µg/mL] | MIC C. neoformans [3] [µg/mL]
CCCCCCCCCCCCCNCC(=O)N(CCC)CC(=O)N(CC(=O)N(C)CC(=O)N(CC(=O)N(CC(=O)N(CCCN)CC(N)=O)Cc1ccccc1)Cc1ccco1)C(C)c1ccccc1 (stereo not shown) [SAR 4] (H-[N(tridecyl)Gly][NPrGly][X1][Sar][NFurfurylGly][Nphe][Gly(N(CH2)3NH2)]-NH2) | 6.25 (≈ 6.34 µM) | 61.8 ± 16.1 (≈ 62.7 µM) | 
CCCCCCCCCCCCCNCC(=O)N(CCC)CC(=O)N(CC(=O)N(CCCCN)CC(=O)N(CC(=O)N(CC(=O)N(CCCN)CC(N)=O)Cc1ccccc1)Cc1ccco1)Cc1ccc(Cl)cc1 [Compound 911-M5] (H-[N(tridecyl)Gly][NPrGly][Gly(Nα-4-Cl-benzyl)][Nlys][NFurfurylGly][Nphe][Gly(N(CH2)3NH2)]-NH2) | 6.25 to 12.5 | 114 ± 32.5 (≈ 108 µM) | 1.56 (≈ 1.47 µM)
CCCCCCCCCCCCCNCC(=O)N(CCN)CC(=O)N(CC(=O)N(CCCCN)CC(=O)N(CC(=O)N(CC(=O)N(CCCN)CC(N)=O)Cc1ccccc1)Cc1ccco1)[C@@H](C)C1CCCCC1 [Compound 911-M13] (H-[N(tridecyl)Gly][Gly(N-2-aminoethyl)][N(1S-cyclohexylethyl)Gly][Nlys][NFurfurylGly][Nphe][Gly(N(CH2)3NH2)]-NH2) | 6.25 (≈ 5.95 µM) | 140 ± 33 (≈ 133 µM) | 3.13 (≈ 2.98 µM)
CCCCCCCCCCCCCC(=O)NCC(=O)N(CCC)CC(=O)N(CC(=O)N(CCCCN)CC(=O)N(CC(=O)N(CCCn1ccnc1)CC(=O)N(CCCN)CC(N)=O)Cc1ccco1)C(C)c1ccccc1 (stereo not shown) [Compound 911-M14] (Myristoyl-G[NPrGly][X1][Nlys][NFurfurylGly][N(3-imidazol-1-ylpropyl)Gly][Gly(N(CH2)3NH2)]-NH2) | 25 (≈ 22.9 µM) | > 200 | 6.25 to 12.5
CCCCCCCCCCCCCNCC(=O)N(CCC)CC(=O)N(CC(=O)N(CCCCN)CC(=O)N(CC(=O)N(CC(=O)N(CCCN)CC(N)=O)Cc1ccccc1)Cc1ccco1)Cc1ccco1 [Compound 911-M7] (H-[N(tridecyl)Gly][NPrGly][NFurfurylGly][Nlys][NFurfurylGly][Nphe][Gly(N(CH2)3NH2)]-NH2) | 12.5 (≈ 12.3 µM) | 187 ± 21.5 (≈ 183 µM) | 3.13 (≈ 3.07 µM)
CCCCCCCCCCCCCC(=O)NCC(=O)N(CCC)CC(=O)N(CC(=O)N(CCCCN)CC(=O)N(CC(=O)N(CC(=O)N(CCCN)CC(N)=O)c1cccc2ccccc12)Cc1ccco1)C(C)c1ccccc1 (stereo not shown) [Compound 911-M15] (Myristoyl-G[NPrGly][X1][Nlys][NFurfurylGly][X2][Gly(N(CH2)3NH2)]-NH2) | 6.25 (≈ 5.64 µM) | 122 ± 21.3 (≈ 111 µM) | 3.13 to 6.25
CCCCCCCCCCCCCC(=O)NCC(=O)N(CCC)CC(=O)N(CC(=O)N(CCCCN)CC(=O)N(CC(=O)N(CC(=O)N(CCCN)CC(N)=O)Cc1ccc(OC)cc1)Cc1ccco1)C(C)c1ccccc1 (stereo not shown) [Compound 911-M16] (Myristoyl-G[NPrGly][X1][Nlys][NFurfurylGly][N(4-MeOBn)Gly][Gly(N(CH2)3NH2)]-NH2) | 6.25 (≈ 5.67 µM) | 136 ± 39.6 (≈ 123 µM) | 3.13 to 6.25
CCCCCCCCCCCCCC(=O)NCC(=O)N(CCN)CC(=O)N(CC(=O)N(CCCCN)CC(=O)N(CC(=O)N(CC(=O)N(CCCN)CC(N)=O)Cc1ccccc1)Cc1ccco1)[C@@H](C)C1CCCCC1 [Compound 911-M12] (Myristoyl-G[Gly(N-2-aminoethyl)][N(1S-cyclohexylethyl)Gly][Nlys][NFurfurylGly][Nphe][Gly(N(CH2)3NH2)]-NH2) | 6.25 (≈ 5.8 µM) | 145 ± 35 (≈ 134 µM) | 3.13 (≈ 2.9 µM)
CCCN(CC(=O)N(CC(=O)N(CCCCN)CC(=O)N(CC(=O)N(CC(=O)N(CCCN)CC(N)=O)Cc1ccccc1)Cc1ccco1)C(C)c1ccccc1)C(=O)CNC (stereo not shown) [SAR 1] (H-[Sar][NPrGly][X1][Nlys][NFurfurylGly][Nphe][Gly(N(CH2)3NH2)]-NH2) | >100 | > 200 | 
CCCCCCCCCCCCCNCC(=O)N(CCC)CC(=O)N(CC(=O)N(CCCCN)CC(=O)N(CC(=O)N(CC(=O)N(CCCN)CC(N)=O)Cc1ccccc1)Cc1ccco1)Cc1cccs1 [Compound 911-M8] (H-[N(tridecyl)Gly][NPrGly][N(2-thienylmethyl)Gly][Nlys][NFurfurylGly][Nphe][Gly(N(CH2)3NH2)]-NH2) | 6.25 (≈ 6.04 µM) | 108 ± 34.6 (≈ 104 µM) | 
CCCCCCCCCCCCCNCC(=O)N(CCC)CC(=O)N(C)CC(=O)N(CCCCN)CC(=O)N(CC(=O)N(CC(=O)N(CCCN)CC(N)=O)Cc1ccccc1)Cc1ccco1 [SAR 3] (H-[N(tridecyl)Gly][NPrGly][Sar][Nlys][NFurfurylGly][Nphe][Gly(N(CH2)3NH2)]-NH2) | 50 (≈ 52.5 µM) | 194 ± 7.5 (≈ 204 µM) | 
CCCCCCCCCCCCCNCC(=O)N(C)CC(=O)N(CC(=O)N(CCCCN)CC(=O)N(CC(=O)N(CC(=O)N(CCCN)CC(N)=O)Cc1ccccc1)Cc1ccco1)C(C)c1ccccc1 (stereo not shown) [SAR 2] (H-[N(tridecyl)Gly][Sar][X1][Nlys][NFurfurylGly][Nphe][Gly(N(CH2)3NH2)]-NH2) | 12.5 (≈ 12.3 µM) | 83.9 ± 5.7 (≈ 82.6 µM) | 
CCCCCCCCCCCCCNCC(=O)N(CCC)CC(=O)N(CC(=O)N(CCCCN)CC(=O)N(CC(=O)N(C)CC(=O)N(CCCN)CC(N)=O)Cc1ccco1)C(C)c1ccccc1 (stereo not shown) [SAR 6] (H-[N(tridecyl)Gly][NPrGly][X1][Nlys][NFurfurylGly][Sar][Gly(N(CH2)3NH2)]-NH2) | 25 (≈ 25.8 µM) | 156 ± 4.7 (≈ 161 µM) | 
CCCCCCCCCCCCCNCC(=O)N(CCC)CC(=O)N(CC(=O)N(CCCCN)CC(=O)N(CC(=O)N(CC(=O)N(CCCN)CC(N)=O)Cc1ccccc1)Cc1ccco1)C1CCCCC1 [Compound 911-M9] (H-[N(tridecyl)Gly][NPrGly][Gly(N-cHex)][Nlys][NFurfurylGly][Nphe][Gly(N(CH2)3NH2)]-NH2) | 12.5 (≈ 12.2 µM) | 99.5 ± 22 (≈ 97.4 µM) | 1.56 (≈ 1.53 µM)
CCCCCCCCCCCCCNCC(=O)N(CCC)CC(=O)N(CC(=O)N(CCCCN)CC(=O)N(CC(=O)N(CC(=O)N(CCCN)CC(N)=O)Cc1ccccc1)Cc1ccco1)Cc1ccc(Br)cc1 [Compound 911-M6] (H-[N(tridecyl)Gly][NPrGly][N(4-Br-benzyl)Gly][Nlys][NFurfurylGly][Nphe][Gly(N(CH2)3NH2)]-NH2) | 6.25 (≈ 5.64 µM) | 108 ± 13.6 (≈ 97 µM) | 1.56 to 3.13
CCCCCCCCCCCCCNCC(=O)N(CCC)CC(=O)N(CC(=O)N(CCCCN)CC(=O)N(CC(=O)N(CC(=O)N(C)CC(N)=O)Cc1ccccc1)Cc1ccco1)C(C)c1ccccc1 (stereo not shown) [SAR 7] (H-[N(tridecyl)Gly][NPrGly][X1][Nlys][NFurfurylGly][Nphe][Sar]-NH2) | 6.25 (≈ 6.25 µM) | 57.7 ± 11 (≈ 57.7 µM) | 
CCCCCCCCCCCCCNCC(=O)N(CCC)CC(=O)N(CC(=O)N(CCCCN)CC(=O)N(CC(=O)N(CC(=O)N(CCCN)CC(N)=O)Cc1ccccc1)Cc1ccco1)Cc1ccccc1 [Compound 911-M3] (H-[N(tridecyl)Gly][NPrGly][Nphe][Nlys][NFurfurylGly][Nphe][Gly(N(CH2)3NH2)]-NH2) | 6.25 (≈ 6.07 µM) | 87.5 ± 10.8 (≈ 85 µM) | 1.56 (≈ 1.52 µM)
CCCCCCCCCCCCCNCC(=O)N(CCC)CC(=O)N(CC(=O)N(CCCCN)CC(=O)N(C)CC(=O)N(CC(=O)N(CCCN)CC(N)=O)Cc1ccccc1)C(C)c1ccccc1 (stereo not shown) [SAR 5] (H-[N(tridecyl)Gly][NPrGly][X1][Nlys][Sar][Nphe][Gly(N(CH2)3NH2)]-NH2) | 12.5 to 25 | 157 ± 10.1 (≈ 160 µM) | 
